Legend:
Assay type in all cases: biochemical
[1] = test system: Single strand DNA, double strand RNA and DNA, and 2′-methoxy modified sequences; assay: Cleavage selectivity against other nucleic acids
Description: (§1) Initial rates of cleavage of several single stranded oligonucleotides were determined as described in connection with FIG. 1 with the exception that 50 nM wild-type peptide and 500 nM oligonucleotide were used. Arrows indicate the position of the peptide induced cleavage. The relative intensity of the cleavage product for each respective cleavage sites is indicated by the length of the arrows.

RNA [2] = assay: pH dependence of RNA cleavage; settings: bell shaped pH profile, pH 4 to 9
Description: I.D. No. 1. Initial rates were determined as described in connection with FIG. 2. For each rate determination the pH was adjusted using either 20 mM sodium acetate, pH 4, 20 mM sodium phosphate, pH 5 to pH 8 or 20 mM sodium carbonate, pH 9.

[3] = test system: RNA substrate 9713, Seq. I.D. No. 7; assay: Cleavage product analysis of RNA substrate
Text: FIG. 3A presents a schematic cleavage product analysis of RNA aubstrate. RNA substrate 9713, Seq. I.D. No. 7, was internally labeled at the penultimate 3′ phosphate using (^32P) cytidine bisphosphate and T4 RNA ligase. The 3′ terminal phosphate was removed using calf intestinal phosphatase and the RNA digested with the wild type peptide as described in the schematic of FIG. 3A. The digestion reactions were divided into equal aliquots and one aliquot subjected to an additional dephosphorylation. The digested products were analyzed by denaturing polyacrylamide gel electrophoresis.

RNA [4] = assay: Effect of divalent cations on RNA cleavage activity; settings: Mg2+ and Mn2+
Description: (§2) I.D. No. 1. Digestion reactions were performed as described in FIG. 1 in the presence of either Mg2+ (solid) or Mn2+ (hashed). Reactions were quenched at 30 min. and digestion products analyzed by denaturing polyacrylamide gel electrophoresis.

single stranded RNA = assay: RNA cleavage (ribonuclease) activity of the peptides
Description: (§3) FIG. 1A depicts the Kinetics of RNA Cleavage by the Finger Peptide of Seq. I.D. No. 1. Multiple turnover kinetics are shown for RNA cleavage by the wild-type peptide (open box) and wild-type peptide coordinated with zinc (open triangle). […] I.D. No. 1. Multiple turnover kinetics were performed in 100 μL containing 50 nM peptide, 100 to 1000 nM or a 20—mer RNA oligonucleotide denominated 9713 and having Seq. I.D. No. 7, as […] 32P labeled RNA in 20 mM Sodium Phosphate, pH 7.0, 100 mM KCl, 1 mM EDTA, and 0.1% NP40. Digestion reaction were incubated at 37° C. and quenched at specific time points in 6 M urea. Digestion products were analyzed by denaturing polyacrylamide gel electrophoresis. […] Single turnover kinetics were performed as described above with the exception that peptide ranging in concentration from 50 to 500 nM was added to 50 nM of the 9713 RNA, Seq. I.D. No. 7.
as §2

[5] = test system: 2755 (RNA) single stranded oligonucleotide, SEQ ID 5; assay: Initial rate of cleavage of single stranded oligonucleotide by the finger peptide; set-up: unit not given here; settings: substrate 2755 (RNA); 50 nM wild-type peptide, 500 nM oligonucleotide
Description: as §3, §1

[6] = test system: 4701 (DNA) single stranded oligonucleotide, SEQ ID 2; assay: as above; set-up: unit not given here; settings: substrate 4701 (DNA); 50 nM wild-type peptide, 500 nM oligonucleotide
Description: as §3, §1

[7] = test system: 12147 (RNA) single stranded oligonucleotide, SEQ ID 6; assay: as above; set-up: unit not given here; settings: substrate 12147 (RNA); 50 nM wild-type peptide, 500 nM oligonucleotide
Description: as §3, §1

[8] = test system: 12079 (2′-OMe) single stranded oligonucleotide, SEQ ID 3; assay: as above; set-up: unit not given here; settings: substrate 12079 (2′-OMe); 50 nM wild-type peptide, 500 nM oligonucleotide
Description: as §3, §1

[9] = test system: 3058 (RNA) single stranded oligonucleotide, SEQ ID 4; assay: as above; set-up: unit not given here; settings: substrate 3058 (RNA); 50 nM wild-type peptide, 500 nM oligonucleotide
Description: as §3, §1

[10] = test system: 9713 (RNA) 20-mer RNA oligonucleotide, Seq. I.D. No. 7; assay: Initial rate of cleavage of single stranded oligonucleotide by the peptides; set-up: unit not given here
Description: as §3
Initial rates of cleavage of several single stranded oligonucleotides were determined as described in connection with FIG. 1 with the exception that 50 nM wild-type peptide and 500 nM oligonucleotide were used. […]
I.D. No. 1. […] Reactions were quenched at 30 min. and digestion products analyzed by denaturing polyacrylamide gel electrophoresis.
Initial rates were determined as described in connection with FIG. 2. Peptide structure was determined by SDS PAGE and LC-MS.

[11] = test system: 20-mer RNA oligonucleotide 9713, Seq. I.D. No. 7; assay: Multiple turnover kinetics of RNA cleavage, Lineweaver-Burk analysis; settings: zinc-free form of the finger peptide
Description: as §3

## HOOC-KTYQCQYCEY RSADSSNLKTHIKTKHSKEK-NH2 [Wild type]
[1]; listed as SEQ ID No. 1
  hydrolysis of non single strand RNA substrates: not hydrolyzed
[1]; listed as the peptide
  hydrolysis of non single strand RNA substrates: not degraded
RNA [2]
  pH for RNA cleavage: 7.0
[3]; listed as SEQ ID No. 1
  termini of RNA cleavage products: 3′-phosphate and 5′-hydroxyl
[3]; listed as wild type peptide
  termini of RNA cleavage products: 3′-phosphate and 5′-hydroxyl termini
RNA [4]
  requirement of divalent cations for catalysis: not to be required for catalysis
Single stranded RNA
  cleavage site specificity within single stranded RNA: preferentially cleave 5′-pyr-A-3′
Single stranded RNA; fold faster
  cleavage rate of RNA sequences containing 5′-pyr-A-3′ relative to those without: 10-30 fold
Single stranded RNA; peptide coordinated with zinc
  ribonuclease activity on coordination of the peptide with zinc: complete loss of ribonuclease activity
[5]
  V0: 422
[6]
  V0: 0
[7]
  V0: 1200
[8]
  V0: 0
[9]
  V0: 153
[10]; substrate 9713 (RNA), 50 nM wild-type peptide, 500 nM oligonucleotide
  V0: 6100
[10]; substrate 9713 RNA, wild type and mutant peptides
  V0 (9713): 6000 ± 130
[11]
  Kcat: 0.96 s⁻¹
  Km: 0.105 µM
  V0: 6 nmol/L/min

Reference: US6365379B1, “Zinc finger peptide cleavage of nucleic acids” (ISIS Pharmaceuticals, Inc., priority 1998, dated 2002)
